Measured values from BindingDB's records for PubMed 7796807 (Synaptic Pharmaceutical, 1995).

Biological target: 5-hydroxytryptamine receptor 4 (Rattus norvegicus, UniProt Q62758)
Sequence (Q62758 whole entry): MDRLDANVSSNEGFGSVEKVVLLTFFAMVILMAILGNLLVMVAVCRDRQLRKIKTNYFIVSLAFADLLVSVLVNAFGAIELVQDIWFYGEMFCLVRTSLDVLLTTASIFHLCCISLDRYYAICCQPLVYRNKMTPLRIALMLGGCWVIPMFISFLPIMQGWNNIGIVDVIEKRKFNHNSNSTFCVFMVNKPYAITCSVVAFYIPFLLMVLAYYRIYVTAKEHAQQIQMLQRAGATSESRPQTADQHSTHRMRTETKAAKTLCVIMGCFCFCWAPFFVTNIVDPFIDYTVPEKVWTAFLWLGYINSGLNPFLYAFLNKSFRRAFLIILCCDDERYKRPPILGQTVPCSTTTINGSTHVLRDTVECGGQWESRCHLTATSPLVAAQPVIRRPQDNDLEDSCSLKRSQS

Compound	Ki
CCCN(CCC)C1CCc2cccc(O)c2C1 (centres undefined)	1000 nM
CN1C2CCC1CC(OC(=O)c1c[nH]c3ccccc13)C2 (centres undefined)	544 nM
O=C(c1ccc(F)cc1)C1CCN(CCn2c(=O)[nH]c3ccccc3c2=O)CC1 [3-(2-{4-[(4-fluorophenyl)carbonyl]piperidin-1-yl}ethyl)-1,2,3,4-tetrahydroquinazoline-2,4-dione]	1000 nM
Cn1cc(CCN)c2cc(O)ccc21 [5-HT,omega-N-Me]	1450 nM
CCN(CC)C(=O)[C@@H]1C=C2c3cccc4[nH]cc(c34)C[C@H]2N(C)C1 [(4R,7R)-N,N-diethyl-6-methyl-6,11-diazatetracyclo[7.6.1.0^{2,7}.0^{12,16}]hexadeca-1(16),2,9,12,14-pentaene-4-carboxamide]	1000 nM
COc1cc(N)c(Cl)cc1C(=O)NC1CCN2CCCC1C2 (centres undefined) [NSC_3035240]	243 nM
CNS(=O)(=O)Cc1ccc2[nH]cc(CCN(C)C)c2c1 [Sumax]	1000 nM
COc1cc(N)c(Cl)cc1C(=O)NC1CN2CCC1CC2 (centres undefined) [ZACOPRIDE,R]	808 nM
COc1ccc2[nH]cc(CCN)c2c1 [tryptamine, 5-Methoxy]	401 nM
